Measured values taken from PMC9946977, “Identification of linderalactone as a natural inhibitor of SHP2 to ameliorate CCl4-induced liver fibrosis” (Frontiers in Pharmacology, 2023).

Assays:
[1] = system: HSCs activation (α-SMA, vimentin, desmin); assay: CCl4 mouse model: HSC activation markers in liver; type: in vivo, C57BL/6 mice; details: CCl4 mice
Description: C57BL/6 mice (20 ± 2 g) were obtained from Hangzhou Medical College Experimental Animal Center (Hangzhou, China). The animals were maintained under controlled temperature (22°C ± 1°C), humidity (50%), and light (12 h light/12 h dark). The animals were fed a standard laboratory diet and provided with free access to tap water. All animals received humane care according to institutional animal care guidelines approved by the Experimental Animal Ethical Committee of Hangzhou Medical College. Forty mice were randomly divided into six groups: (1) vehicle control (n = 7); (2) CCl4 model (n = 7); (3) CCl4 + LIN (20 mg/kg) (n = 7); (4) CCl4 + LIN (40 mg/kg) (n = 7); (5) LIN (40 mg/kg) (n = 7); and (6) CCl4 + silymarin (SIL) (200 mg/kg) (n = 5). LIN and SIL were dissolved in 0.5% CMC-Na solution. Mice were administered LIN or SIL (intragastric administration, i.g.) once per day and CCl4 (intraperitoneal injection, i.p.; mixed 1:3 in olive oil, 2 mL/kg) twice per week for 4 weeks. Mice in the vehicle control group received olive oil (i.p. twice a week, 4 weeks) and 0.5% CMC-Na (i.g. every day, 4 weeks). After treatment, the mice were sacrificed, and plasma and liver tissues were collected and further analysed.
Total RNA was extracted from liver tissues and LX-2 cells using the TRIzol reagent. cDNA was synthesised using a PrimeScript RT Master Mix kit. Real-time PCR was performed using SYBR Green premix according to the manufacturer’s instructions. Relative expression of target genes was normalised to actin, analysed by the delta-delta-CT method and given as a ratio compared with the vehicle control. Primer sequences used in this study are listed in Supplementary Material.
The formalin-fixed and de-paraffinized liver sections (5 μm) were incubated with 5% bovine serum albumin to minimise non-specific binding, and then incubated with α-SMA antibody (Santa Cruz, SC-53142) in a humidified chamber overnight at 4°C. After washing thrice with PBS, the sections were incubated with FITC-conjugated secondary antibody (SH0058; Skyhobio) for 1 h. After washing thrice, the liver sections were incubated with DAPI for 10 min. Images were captured using an inverted microscope (IX81; Olympus, Japan).
Paraffin-embedded liver sections were deparaffinized in xylene, rehydrated in a gradient of ethanol to distilled water, and then quenched by 3% hydrogen peroxide and then incubated with 5% bovine serum albumin, followed by incubation with vimentin antibody (ABclonal, A19607) at 4°C overnight, and further detected by using DAKO EnVision detection kits (Agilent Technologies Co., Ltd. K346811). The sections were counterstained with haematoxylin. Images were taken using an inverted microscope, and vimentin-positive cells were counted manually using Image-Pro Plus 6 in three random fields per sample (each group contained three samples).
Liver proteins were isolated by using a lysis buffer containing 50 mM Tris-HCl (pH7.5), 150 mM NaCl, 1 mM EDTA, 20 mM NaF, 0.5% NP-40, 10% glycerol, 1 mM phenylmethylsulphonyl fluoride, 10 μg/mL aprotinin, 10 μg/mL leupeptin, and 10 μg/mL pepstatin. The supernatants were collected after centrifugation at 3,000 g for 10 min at 4°C, and the protein concentration of each sample was determined and normalised to the same protein concentration. Protein samples were separated by sodium dodecyl sulphate-polyacrylamide gel electrophoresis and transferred onto polyvinylidene fluoride membranes. The membranes were incubated with the indicated primary and secondary antibodies, and the proteins in the membranes were visualised using a chemiluminescence kit. TGF-® antibody (CST, 3711), Smad 2/3 antibody (CST, 8685), p-Smad 2/3 antibody (CST, 8828), anti-α-SMA antibody (Santa Cruz, SC-53142), vimentin antibody (ABclonal, A19607), desmin antibody (ABclonal, A3736), GAPDH antibody (Beyotime, AF0006), and SHP2 antibody (CST, 3397). […]

[2] = system: mouse liver; assay: LIN alone in mice (toxicity); type: in vivo, C57BL/6 mice; details: LIN alone 40 mg/kg i.g. once per day, 4 weeks
Description: C57BL/6 mice (20 ± 2 g) were obtained from Hangzhou Medical College Experimental Animal Center (Hangzhou, China). The animals were maintained under controlled temperature (22°C ± 1°C), humidity (50%), and light (12 h light/12 h dark). The animals were fed a standard laboratory diet and provided with free access to tap water. All animals received humane care according to institutional animal care guidelines approved by the Experimental Animal Ethical Committee of Hangzhou Medical College. […] After treatment, the mice were sacrificed, and plasma and liver tissues were collected and further analysed.
Serum was collected from blood samples after centrifugation at 860 × g for 15 min. Serum ALT (Nanjing Jiancheng Bioengineering Institute, C010-2-1) and AST (Nanjing Jiancheng Bioengineering Institute, C009-2-1) activities were measured using kits, according to the manufacturer’s instructions. Liver hydroxyproline content was determined using the alkaline hydrolysis method, as described in the kits. Serum levels of laminin (LN) were measured using ELISA kits, according to the manufacturer’s instructions (Shanghai YANJIN Biological Technology Co., LTD, F12019). […]

[3] = target: T1, SHP2-PTP WT (Homo sapiens, UniProt Q06124); assay: BLI assay, wildtype SHP2-PTP; details: 1:1 binding model
T1 construct: Human SHP2 PTP domain (A237–I529) expression constructs; His-tag; made in house; host or cells: E. coli BL21 (DE3)
T1 sequence (Q06124 237-529): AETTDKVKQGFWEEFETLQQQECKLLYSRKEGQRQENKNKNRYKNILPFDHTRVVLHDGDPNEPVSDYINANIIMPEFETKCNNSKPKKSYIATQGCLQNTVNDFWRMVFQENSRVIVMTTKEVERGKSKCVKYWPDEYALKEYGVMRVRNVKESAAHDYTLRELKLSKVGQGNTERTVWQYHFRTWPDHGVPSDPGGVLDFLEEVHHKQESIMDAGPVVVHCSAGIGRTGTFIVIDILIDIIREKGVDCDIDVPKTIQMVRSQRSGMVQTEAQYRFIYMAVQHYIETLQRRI
Description: The BLI assay was performed using a FortéBio Octet 96 system. To label the biotin group on SHP2 proteins, NHS-PEG12-Biotin […] was added to the purified SHP2-PTP solution […] at 1.5:1 ratio for 2 h at 4°C. The reaction mixture was then loaded onto a column (GENEMORE, #G-MM-IGT) to remove excess free biotin. The biotin-labelled-SHP2-PTP protein was loaded onto super streptavidin (SSA) sensors (#18-5057, Octet) in a buffer containing […] 25 mM HEPES, 150 mM NaCl, and 0.02% (v/v) Tween-20. After equilibrium, the kinetics of the LIN and SHP2-PTP association were analysed by soaking the SSA sensors in a compound solution with various LIN concentrations for 300 s (6.25, 12.5, 25, 50, 100, and 200 μM), followed by 300 s of dissociation in the same HEPES buffer. The equilibrium constant (KD) values were assessed using the FortéBio data analysis software by fitting the kinetic data using a 1:1 binding model.

[4] = LIN 20 mg/kg, Western blot, p < 0.05

C/C1=C\CCC2=C[C@@H](OC2=O)c2c(C)coc2C1 [LIN, linderalactone]
liver α-SMA accumulation (immunofluorescence staining) ([1]; LIN): largely inhibited | protein expression of hepatic Des [1, 4]: significant reduction | protein expression of hepatic Vim [1, 4]: significant reduction | protein expression of hepatic α-SMA [1, 4]: significant reduction | hepatic mRNA expression of Des ([1]; LIN 20 and 40 mg/kg): significantly reduced | hepatic mRNA expression of Vim ([1]; LIN 20 and 40 mg/kg): significantly reduced | hepatic mRNA expression of acta2 ([1]; LIN 20 and 40 mg/kg): significantly reduced | ALT/AST [2]: no obvious alteration | pathological changes in mouse liver tissue [2]: no obvious alteration | Kd [3]: 666 µM
